Measurements reported in US12121510B2 (Cedars-Sinai Medical Center, priority 2016, dated 2024).
Read-outs that look alike come from different tables or passages of the source.

Columns and labels:
[1] = system: renal cancer and B-cell lymphoma cell lines; assay: Growth IC50 in renal cancer and B-cell lymphoma panel; format: cell-based, human; settings: all cancer cell lines of Example 16; 72 h; read-out: IC50 across renal cancer and B-cell lymphoma cell lines
Method: Cell lines are cultured as follows. […] 5,000 cells/well renal cancer cells and 10,000 cells/well lymphoma cells are seeded in 96 well plates in 100 microliter medium/per well for 24 h. […] Renal cancer cells are fixed with 3.7% paraformaldehyde for 15 minutes and are stained with Crystal violet solution (0.5% in 25% methanol) for 30 minutes. After rinsing with water cell layers are dried and decolorized with Sorenson citrate with shaking for 20 minutes. Light absorption of the extracted supernatant is read at 595 nm. Lymphoma cell growth is evaluated using MTT and cells are incubated for 4 hours. 100 microliters of isopropanol is added, and the extracted supernatant fraction is read at absorption maximum of 595 nm.

[2] = system: 22Rv1; assay: Cancer cell growth IC50 (crystal violet); format: cell-based, human; settings: Example 15
Text: (§1) Exemplary Embodiments are generally performed as follows, unless otherwise noted. Simvastatin is purchased from Ark Pharm, Inc. (Arlington Heights, IL). Cisplatin (CIS) is purchased from MedKoo Biosciences, Inc. (Chapel Hill, NC). Dihydroartemisinin is purchased from TCI America (Portland, OR). All other chemicals and reagents are purchased from standard sources such as Sigma-Aldrich and/or VWR and are of highest quality available. Puromycin dihydrochloride was purchased from Alfa Aesar (Tewksbury, MA). Deionized water ([…]) used for making solutions is obtained from Milli-Q Direct Ultrapure Water System from Millipore (Billerica, MA, USA). All intermediates are characterized by 1H NMR and mass analysis and the purity of compounds are analyzed by HPLC. 1H NMR data are collected on Bruker 400 MHz spectrometers using standard parameters; chemical shifts are reported in ppm (δ) in reference to residual non-deuterated solvent. ESI mass spectroscopy analysis is performed using a Thermo Fisher LTQ Orbitrap Elite system. IC50 is the half maximal inhibitory concentration and determined is determined by crystal violet assay unless otherwise noted.
The crystal violet assay is performed as follows, unless otherwise noted. Cell lines are supplemented with RPMI 1640 medium, 10% fetal bovine serum, 1% PenStrep, and placed in a humidified atmosphere containing 5% CO2 at 37° C. 5,000 cells/well renal cancer cells and 10,000 cells/well lymphoma cells are seeded in 96 well plates in 100 microliter medium/per well for 24 h. […] Renal cancer cells are fixed with 3.7% paraformaldehyde for 15 minutes and are stained with Crystal violet solution (0.5% in 25% methanol) for 30 minutes. After rinsing with water cell layers are dried and decolorized with Sorenson citrate with shaking for 20 minutes. Light absorption of the extracted supernatant is read at 595 nm. Lymphoma cell growth was evaluated using MTT and cells are incubated for 4 hours. 100 microliters of isopropanol is added, and the extracted supernatant fraction is read at absorption maximum of 595 nm. […]

[3] = system: C4-2; assay: Cancer cell growth IC50 (crystal violet); format: cell-based; settings: Example 15; C4-2
Text: as §1
(§2) The crystal violet assay is performed as follows, unless otherwise noted. Cell lines are supplemented with RPMI 1640 medium, 10% fetal bovine serum, 1% PenStrep, and placed in a humidified atmosphere containing 5% CO2 at 37° C. 5,000 cells/well renal cancer cells and 10,000 cells/well lymphoma cells are seeded in 96 well plates in 100 microliter medium/per well for 24 h. […] Renal cancer cells are fixed with 3.7% paraformaldehyde for 15 minutes and are stained with Crystal violet solution (0.5% in 25% methanol) for 30 minutes. After rinsing with water cell layers are dried and decolorized with Sorenson citrate with shaking for 20 minutes. Light absorption of the extracted supernatant is read at 595 nm. Lymphoma cell growth was evaluated using MTT and cells are incubated for 4 hours. 100 microliters of isopropanol is added, and the extracted supernatant fraction is read at absorption maximum of 595 nm.
(§3) Standard cell culture conditions typically are RPMI 1640 medium, 10% fetal bovine serum, 1% PenStrep, and are performed in a humidified atmosphere containing 5% CO2 at 37° C. Generally, 5,000 cells/well-10,000 cells/well are seeded in 96 well plates in 100 microliter medium/per well for 24 h, or as described in Example 16, unless otherwise noted. Certain cells require specialized media, growth factors, antibiotics, or culture condition adjustments, as will be apparent to a person of ordinary skill in the art.

[4] = system: MCF-7; assay: Cancer cell growth IC50 (crystal violet); format: cell-based; settings: Example 15
Text: as §1, §2, §3

[5] = system: ARCaP-E; assay: Cancer cell growth IC50 (crystal violet); format: cell-based; settings: Example 15
Text: as §1, §2, §3

[6] = system: ARCaP-M; assay: Cancer cell growth IC50 (crystal violet); format: cell-based; settings: Example 15
Text: as §1, §2, §3

[7] = system: FUOV-1; assay: Cancer cell growth IC50 (crystal violet); format: cell-based; settings: Example 15
Text: as §1, §2, §3

[8] = system: HepG2; assay: Cancer cell growth IC50 (crystal violet); format: cell-based; settings: Example 15
Text: as §1, §2, §3

[9] = system: U87; assay: Cancer cell growth IC50 (crystal violet); format: cell-based; settings: Example 15
Text: as §1, §2, §3

[10] = system: H358; assay: Cancer cell growth IC50 (crystal violet); format: cell-based; settings: Example 15
Text: as §1, §2, §3

[11] = system: PC3M; assay: Cancer cell growth IC50 (crystal violet); format: cell-based; settings: Example 15
Text: as §1, §2, §3

[12] = system: LNCaP; assay: Cancer cell growth IC50 (crystal violet); format: cell-based; settings: Example 15
Text: as §1, §2, §3

[13] = system: PC3; assay: Cancer cell growth IC50 (crystal violet); format: cell-based; settings: Example 15
Text: as §1, §2, §3

[14] = system: C4-2B; assay: Cancer cell growth IC50 (crystal violet); format: cell-based; settings: Example 15
Text: as §1, §2, §3

[15] = system: CAOV-3; assay: Cancer cell growth IC50 (crystal violet); format: cell-based; settings: Example 15
Text: as §1, §2, §3

[16] = system: OV90 and OVCA 433; assay: Growth IC50 in ovarian cancer cell strains; format: cell-based, human; settings: 72 h; read-out: IC50 across ovarian cancer cell strains OV90 and OVCA 433
Method: OV90 and OVCA433 are grown in vitro according to their standard culturing conditions, and an assay such as the crystal violet assay is performed.

[17] = system: Namalwa xenograft tumors; assay: Burkitt lymphoma xenograft tumor growth; format: in vivo; settings: Example 5; NCr Nu/Nu (10 μM) and NOD-SCID (5 μM) mice; 2 times a week; versus CIS or vehicle, p<0.05
Method: Representative results are illustrated in FIG. 5. DZ-CIS is administered to tumors as follows. 15 mice each (NCr Nu/Nu, right panel of FIG. 5, and NOD-SCID, left panel) are injected with Human Burkitt lymphoma cell line, Namalwa cells (10^3), producing 4 xenograft tumors per mouse.

[18] = system: human lymphoma cell lines (Daudi, Raji, Namalwa, Ramos and CA-46); assay: Growth IC50 in lymphoma cell line panel; format: cell-based; settings: all lymphoma cell lines; 72 hours; read-out: IC50 across lymphoma cell lines
Method: as §2

[19] = system: A549; assay: Cell proliferation IC50, Crystal Violet assay; format: cell-based, human; settings: 72 h
[20] = system: A549/DDP (Cisplatin Resistant); assay: Cell proliferation IC50, Crystal Violet assay; format: cell-based, human; settings: 72 h

SMILES: N.N.[Cl][Pt][Cl] [CIS, cis-diamminedichloridoplatinum (II)]
- IC50 [1]: > 64 µM
- IC50 [2]: > 64 µM
- IC50 [3]: > 64 µM
- IC50 [4]: 39.5 µM
- IC50 [5]: > 64 µM
- IC50 [6]: > 64 µM
- IC50 [7]: 27.5 µM
- IC50 [8]: > 64 µM
- IC50 [9]: > 64 µM
- IC50 [10]: > 64 µM
- IC50 [11]: > 64 µM
- IC50 [12]: > 64 µM
- IC50 [13]: 48.7 µM
- IC50 [14]: > 64 µM
- IC50 [15]: 13.4 µM
- IC50 [16]: > 64 µM
- Tumor volume, Namalwa xenograft [17]: not CIS alone
- IC50 [18]: > 64 µM
- IC50 ([19]; A549 parental, single agent, mean ± SEM, read-out: IC50): 26 ± 1.2 µM
- IC50 ([19]; read-out: IC50 of CIS, Mean, A549, CIS alone): 26 µM
- IC50 ([20]; A549/DDP (Cisplatin Resistant), single agent, mean ± SEM, read-out: IC50): 90 ± 1 µM
- IC50 ([20]; read-out: IC50 of CIS, Mean, A549/DDP, CIS alone): 87.6 µM
